# ChEMBL document CHEMBL5303573, “Mapping human microbiome drug metabolism by gut bacteria and their genes” (Nature, 2019)
# Experiments:
# [1] = The drug is tested on Bacteroides coprophilus strain: DSM18228 for biotransformation. The drug concentrations were measured before and after a 12-h incubation by liquid-chromatography-coupled mass spectrometry (LC–MS); conditions: 2 µM
# [2] = The drug is tested on Bacteroides ovatus strain: ATCC8483 for biotransformation. The drug concentrations were measured before and after a 12-h incubation by liquid-chromatography-coupled mass spectrometry (LC–MS); conditions: 2 µM
# [3] = bacteroides eggerthii, 12 h, 2 µM
# Description: The drug is tested on Bacteroides eggerthii strain: DSM20697 for biotransformation. The drug concentrations were measured before and after a 12-h incubation by liquid-chromatography-coupled mass spectrometry (LC–MS)
# [4] = The drug is tested on Eubacterium ventriosum strain: ATCC27560 for biotransformation. The drug concentrations were measured before and after a 12-h incubation by liquid-chromatography-coupled mass spectrometry (LC–MS); type: ADME; parameters: dose 2 uM, timepoint 0 vs 12 hours; conditions: 2 µM
# [5] = The drug is tested on Providencia rettgeri strain: DSM1131 for biotransformation. The drug concentrations were measured before and after a 12-h incubation by liquid-chromatography-coupled mass spectrometry (LC–MS); type: ADME; parameters: dose 2 uM, timepoint 0 vs 12 hours; conditions: 2 µM
# [6] = The drug is tested on Clostridium ramosum strain: DSM1402 for biotransformation. The drug concentrations were measured before and after a 12-h incubation by liquid-chromatography-coupled mass spectrometry (LC–MS); conditions: thomasclavelia ramosa, 2 µM
# [7] = The drug is tested on Bacteroides cellulosilyticus strain: DSM14838 for biotransformation. The drug concentrations were measured before and after a 12-h incubation by liquid-chromatography-coupled mass spectrometry (LC–MS); conditions: 2 µM
# [8] = The drug is tested on Ruminococcus torques strain: ATCC27756 for biotransformation. The drug concentrations were measured before and after a 12-h incubation by liquid-chromatography-coupled mass spectrometry (LC–MS); type: ADME; parameters: dose 2 uM, timepoint 0 vs 12 hours; conditions: 2 µM
# [9] = The drug is tested on Edwardsiella tarda strain: ATCC23685 for biotransformation. The drug concentrations were measured before and after a 12-h incubation by liquid-chromatography-coupled mass spectrometry (LC–MS); conditions: 2 µM
# [10] = The drug is tested on Blautia luti strain: DSM14534 for biotransformation. The drug concentrations were measured before and after a 12-h incubation by liquid-chromatography-coupled mass spectrometry (LC–MS); type: ADME; parameters: dose 2 uM, timepoint 0 vs 12 hours; conditions: 2 µM
# [11] = The drug is tested on Bacteroides sp. WH2 strain: WH2 for biotransformation. The drug concentrations were measured before and after a 12-h incubation by liquid-chromatography-coupled mass spectrometry (LC–MS); conditions: bacteroides sp. wh2, 12 h, 2 µM
# [12] = bacteroides thetaiotaomicron, 12 h, 2 µM
# Description: The drug is tested on Bacteroides thetaiotaomicron strain: 7330 for biotransformation. The drug concentrations were measured before and after a 12-h incubation by liquid-chromatography-coupled mass spectrometry (LC–MS)
# [13] = The drug is tested on Eggerthella lenta strain: ATCC25559 for biotransformation. The drug concentrations were measured before and after a 12-h incubation by liquid-chromatography-coupled mass spectrometry (LC–MS); conditions: 2 µM
# [14] = akkermansia muciniphila, 12 h, 2 µM
# Description: The drug is tested on Akkermansia muciniphila strain: ATCC BAA-835 for biotransformation. The drug concentrations were measured before and after a 12-h incubation by liquid-chromatography-coupled mass spectrometry (LC–MS)
# [15] = The drug is tested on Bacteroides fragilis strain: ATCC43859 for biotransformation. The drug concentrations were measured before and after a 12-h incubation by liquid-chromatography-coupled mass spectrometry (LC–MS); conditions: 2 µM
# [16] = The drug is tested on Clostridium symbiosum strain: ATCC14940 for biotransformation. The drug concentrations were measured before and after a 12-h incubation by liquid-chromatography-coupled mass spectrometry (LC–MS); conditions: 2 µM
# [17] = The drug is tested on Bacteroides xylanisolvens strain: DSM18836 for biotransformation. The drug concentrations were measured before and after a 12-h incubation by liquid-chromatography-coupled mass spectrometry (LC–MS); conditions: 2 µM
# [18] = The drug is tested on Enterococcus faecalis strain: V583 for biotransformation. The drug concentrations were measured before and after a 12-h incubation by liquid-chromatography-coupled mass spectrometry (LC–MS); conditions: 2 µM
# [19] = The drug is tested on Bacteroides dorei strain: DSM17855 for biotransformation. The drug concentrations were measured before and after a 12-h incubation by liquid-chromatography-coupled mass spectrometry (LC–MS); conditions: phocaeicola dorei, 2 µM
# [20] = The drug is tested on Coprococcus comes strain: ATCC27758 for biotransformation. The drug concentrations were measured before and after a 12-h incubation by liquid-chromatography-coupled mass spectrometry (LC–MS); type: ADME; parameters: dose 2 uM, timepoint 0 vs 12 hours; conditions: 2 µM
Compound,Bacterial Biotransformation [1],Bacterial Biotransformation [2],Bacterial Biotransformation [3],Bacterial Biotransformation [4],Bacterial Biotransformation [5],Bacterial Biotransformation [6],Bacterial Biotransformation [7],Bacterial Biotransformation [8],Bacterial Biotransformation [9],Bacterial Biotransformation [10],Bacterial Biotransformation [11],Bacterial Biotransformation [12],Bacterial Biotransformation [13],Bacterial Biotransformation [14],Bacterial Biotransformation [15],Bacterial Biotransformation [16],Bacterial Biotransformation [17],Bacterial Biotransformation [18],Bacterial Biotransformation [19],Bacterial Biotransformation [20]
CSc1ccc2c(c1)C(N1CCN(C)CC1)Cc1ccccc1S2.O=C(O)/C=C\C(=O)O (stereo not drawn),Compound NOT metabolized,Compound NOT metabolized,Compound NOT metabolized,Compound NOT metabolized,Compound NOT metabolized,Compound NOT metabolized,Compound NOT metabolized,Compound NOT metabolized,Compound NOT metabolized,Compound NOT metabolized,Compound NOT metabolized,Compound NOT metabolized,Compound NOT metabolized,Compound NOT metabolized,Compound NOT metabolized,Compound NOT metabolized,Compound NOT metabolized,Compound NOT metabolized,Compound NOT metabolized,
N[C@@H](Cc1ccc(N(CCCl)CCCl)cc1)C(=O)O,Compound metabolized,Compound metabolized,Compound metabolized,Compound metabolized,Compound metabolized,Compound metabolized,Compound metabolized,Compound metabolized,Compound metabolized,Compound metabolized,Compound metabolized,Compound metabolized,Compound metabolized,Compound metabolized,Compound metabolized,Compound metabolized,Compound metabolized,Compound metabolized,Compound metabolized,Compound metabolized
CNC(=C[N+](=O)[O-])NCCSCc1csc(CN(C)C)n1 [NIZATIDINE],Compound NOT metabolized,Compound NOT metabolized,Compound metabolized,Compound metabolized,Compound NOT metabolized,Compound metabolized,Compound metabolized,Compound metabolized,Compound metabolized,Compound metabolized,,Compound metabolized,Compound NOT metabolized,Compound NOT metabolized,Compound NOT metabolized,Compound metabolized,Compound metabolized,Compound metabolized,Compound metabolized,Compound NOT metabolized
CNC(=C[N+](=O)[O-])NCCSCc1ccc(CN(C)C)o1 [RANITIDINE],Compound metabolized,Compound NOT metabolized,Compound NOT metabolized,Compound metabolized,Compound NOT metabolized,Compound metabolized,Compound metabolized,Compound metabolized,Compound NOT metabolized,Compound metabolized,,Compound NOT metabolized,Compound metabolized,Compound metabolized,Compound NOT metabolized,Compound metabolized,Compound metabolized,Compound metabolized,Compound metabolized,Compound metabolized

# Next, values leading:
Bacterial Biotransformation [1],Bacterial Biotransformation [2],Bacterial Biotransformation [3],Bacterial Biotransformation [4],Bacterial Biotransformation [5],Bacterial Biotransformation [6],Bacterial Biotransformation [7],Bacterial Biotransformation [8],Bacterial Biotransformation [9],Bacterial Biotransformation [10],Bacterial Biotransformation [11],Bacterial Biotransformation [12],Bacterial Biotransformation [13],Bacterial Biotransformation [14],Bacterial Biotransformation [15],Bacterial Biotransformation [16],Bacterial Biotransformation [17],Bacterial Biotransformation [18],Bacterial Biotransformation [19],Bacterial Biotransformation [20],Compound
Compound metabolized,Compound metabolized,Compound metabolized,Compound metabolized,Compound metabolized,Compound metabolized,Compound metabolized,,Compound metabolized,Compound NOT metabolized,Compound metabolized,Compound metabolized,Compound NOT metabolized,Compound metabolized,Compound metabolized,Compound metabolized,Compound metabolized,Compound NOT metabolized,Compound metabolized,Compound metabolized,CC(C(=O)O)c1ccc2c(c1)Cc1cccnc1O2 (stereo not drawn) [PRANOPROFEN]
Compound NOT metabolized,Compound metabolized,Compound metabolized,Compound metabolized,Compound NOT metabolized,Compound metabolized,Compound metabolized,Compound metabolized,,Compound metabolized,Compound metabolized,Compound metabolized,Compound metabolized,Compound metabolized,Compound metabolized,Compound metabolized,Compound metabolized,Compound metabolized,Compound metabolized,Compound metabolized,O=C(O)c1cc(/N=N/c2ccc(S(=O)(=O)Nc3ccccn3)cc2)ccc1O [SULFASALAZINE]
Compound metabolized,Compound metabolized,Compound metabolized,Compound metabolized,Compound metabolized,Compound metabolized,Compound metabolized,Compound metabolized,Compound metabolized,Compound metabolized,Compound metabolized,Compound metabolized,Compound metabolized,Compound metabolized,Compound metabolized,,Compound metabolized,Compound metabolized,Compound metabolized,Compound metabolized,COc1ccc2[nH]c([S+]([O-])Cc3ncc(C)c(OC)c3C)nc2n1 (stereo not drawn) [TENATOPRAZOLE]
Compound NOT metabolized,Compound metabolized,Compound metabolized,Compound metabolized,Compound NOT metabolized,Compound metabolized,Compound metabolized,Compound metabolized,,Compound metabolized,Compound metabolized,Compound metabolized,Compound metabolized,Compound metabolized,Compound metabolized,Compound metabolized,Compound metabolized,Compound metabolized,Compound metabolized,Compound metabolized,CCS(=O)(=O)CCn1c([N+](=O)[O-])cnc1C [TINIDAZOLE]
